Here are results for 31 compounds from US8933224B2, “Triazine derivatives” (Pfizer Inc., priority 2013, dated 2015).

pIC50: −log10 of the molar value.

Sequence of rat PDE10 enzyme (Q9QYJ6 24-794): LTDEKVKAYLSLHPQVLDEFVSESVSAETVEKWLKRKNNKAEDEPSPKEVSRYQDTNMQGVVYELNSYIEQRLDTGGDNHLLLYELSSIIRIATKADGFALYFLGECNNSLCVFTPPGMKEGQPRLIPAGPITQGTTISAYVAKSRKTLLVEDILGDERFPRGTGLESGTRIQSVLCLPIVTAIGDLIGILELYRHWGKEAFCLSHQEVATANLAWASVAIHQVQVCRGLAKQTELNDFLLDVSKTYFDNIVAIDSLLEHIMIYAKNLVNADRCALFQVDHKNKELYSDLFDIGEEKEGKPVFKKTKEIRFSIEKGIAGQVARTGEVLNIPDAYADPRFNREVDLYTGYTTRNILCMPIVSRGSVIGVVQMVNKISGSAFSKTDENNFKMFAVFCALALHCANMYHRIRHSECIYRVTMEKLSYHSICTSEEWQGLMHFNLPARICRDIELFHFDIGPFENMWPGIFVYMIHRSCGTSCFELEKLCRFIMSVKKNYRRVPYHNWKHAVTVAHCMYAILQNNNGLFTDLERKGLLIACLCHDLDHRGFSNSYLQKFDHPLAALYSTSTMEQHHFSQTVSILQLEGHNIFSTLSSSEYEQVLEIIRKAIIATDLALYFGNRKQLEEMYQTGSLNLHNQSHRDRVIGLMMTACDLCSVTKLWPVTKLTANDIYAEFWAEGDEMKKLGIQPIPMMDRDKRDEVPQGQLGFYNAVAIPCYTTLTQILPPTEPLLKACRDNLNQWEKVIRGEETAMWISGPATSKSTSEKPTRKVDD

In this experiment the target is rat PDE10 enzyme (Rattus norvegicus (Rat), UniProt Q9QYJ6). The experiment is described as follows: PDE10 scintillation proximity assay (SPA), inhibition of rat PDE10 enzyme activity. The class given is biochemical. As to conditions: geometric mean of 2-4 determinations unless otherwise indicated (b: ≧5 determinations; c: single determination). On the procedure:
PDE10 activity was measured using a scintillation assay (SPA-based method) similar to that previously described by Seeger, T. F. et al., Brain Research 985 (2003) 113-126. The compounds' relative activity as PDE10 inhibitors was investigated by assaying a fixed amount of enzyme in the presence of the test compound and low substrate concentration (cAMP) such that an IC50 could be determined. […] The assay is performed in a 384-well format with 50 μL assay buffer (50 mM TRIS pH 7.5; 1.3 mM MgCl2; 0.01% Brij) containing enough PDE10 to convert ˜20% of 20 nM ^3H-cAMP, and a range of inhibitors. Reactions are incubated for 30 minutes at 25° C. The addition of 20 μL of 8 mg/ml yttrium silicate SPA beads (PerkinElmer) stops the reaction. The plates are sealed (TopSeal, PerkinElmer) and the beads are allowed to settle for 8 hrs, after which they are read on the Trilux Microbeta overnight. ^1Rat enzyme preparation:^2Human enzyme preparation:
The recombinant Bacmid was isolated and used to transfect sf9 insect cells to generate a viral stock. To generate cell paste for purification, sf21 cells were infected with the virus stock and cells were harvested 72 hours after infection as described in Seeger, T. F. et al., Brain Research 985 (2003) 113-126. Insect cell paste was lysed and after centrifugation, the supernatant was chromatographed on Ni-NTA agarose (Qiagen) followed by Mono Q (GE Healthcare Life Sciences) as described in Seeger, T. F. et al., Brain Research 985 (2003) 113-126.
For orientation: Scintillation proximity formats need no separation of bound from free tracer.
Broadly, the pIC50 is −log10 of the IC50, conventionally taken in molar units. A higher pIC50 goes with a small IC50. As for `Cc1nc(-c2ccccc2F)c2c(N3CCc4c(O)nc(C5CCCC5)nc4C3)ncnn12` [Example 160, 2-cyclopentyl-7-[5-(2-fluorophenyl)-7-methylimidazo[5,1-f][1,2,4]triazin-4-yl]-5,6,7,8-tetrahydropyrido[3,4-d]pyrimidin-4-ol], the pIC50 is 8.42. As for `COc1ccc2c(n1)CCN(c1ncnn3c(C)nc(-c4ccccc4F)c13)C2` [Example 66, 6-[5-(2-fluorophenyl)-7-methylimidazo[5,1-f][1,2,4]triazin-4-yl]-2-methoxy-5,6,7,8-tetrahydro-1,6-naphthyridine], the figure is 8.59; as for `Cc1nc(C2CCCO2)c2c(N3CCc4c(c(C(C)C)nn4C)C3)ncnn12` (stereo not shown) [Example 45, 4-(3-isopropyl-1-methyl-1,4,6,7-tetrahydro-5H-pyrazolo[4,3-c]pyridin-5-yl)-7-methyl-5-(tetrahydrofuran-2-yl)imidazo[5,1-f][1,2,4]triazine], 8.42; as for `[2H]C([2H])([2H])Oc1nc(C2CC2)nc2c1CN(c1ncnn3c(C)nc([C@@H]4CCOC4)c13)CC2` [Example 173], 9.87.

`Cc1nc(C2CCCO2)c2c(N3CCc4nc(C5CC5)ncc4C3)ncnn12` (stereo not shown) [Example 22, 2-cyclopropyl-6-[7-methyl-5-(tetrahydrofuran-2-yl)imidazo[5,1-f][1,2,4]triazin-4-yl]-5,6,7,8-tetrahydropyrido[4,3-d]pyrimidine] had a pIC50 of 8.28. Compound `COc1cc2c(cc1OC)CN(c1ncnn3c(C)nc([C@@H]4CCCO4)c13)CC2` [Example 83, 6,7-dimethoxy-2-{7-methyl-5-[(2S)-tetrahydrofuran-2-yl]imidazo[5,1-f][1,2,4]triazin-4-yl}-1,2,3,4-tetrahydroisoquinoline] gave a pIC50 of 7.53. To `Cc1nc([C@H]2CCOC2)c2c(N3CCc4nn(C5CC5)cc4C3)ncnn12` [Example 26, 4-(2-cyclopropyl-2,4,6,7-tetrahydro-5H-pyrazolo[4,3-c]pyridin-5-yl)-7-methyl-5-[(3R)-tetrahydrofuran-3-yl]imidazo[5,1-f][1,2,4]triazine] belongs over 8.65; to `Cc1nc(C2CCOCC2)c2c(N3CCc4nn(C)c(C(C)C)c4C3)ncnn12` [Example 104, 7-methyl-4[2-methyl-3-(propan-2-yl)-2,4,6,7-tetrahydro-5H-pyrazolo[4,3-c]pyridin-5-yl]-5-(tetrahydro-2H-pyran-4-yl)imidazo[5,1-f][1,2,4]triazine], 8.97; to `CCc1noc2c1CN(c1ncnn3c(C)nc([C@@H]4CCOC4)c13)CC2` [Example 32], 8.43.

On to `Cc1nc([C@H]2CCOC2)c2c(N3CCc4nn(C)cc4C3)ncnn12` [Example 99, 7-methyl-4-(2-methyl-2,4,6,7-tetrahydro-5H-pyrazolo[4,3-c]pyridin-5-yl)-5-[(3R)-tetrahydrofuran-3-yl]imidazo[5,1-f][1,2,4]triazine], for which the pIC50 is 8.19. To `COc1cc2c(cc1OC)CN(c1ncnn3c(C)nc(CC(C)C)c13)CC2` [Example 64, 2-(5-isobutyl-7-methylimidazo[5,1-f][1,2,4]triazin-4-yl)-6,7-dimethoxy-1,2,3,4-tetrahydroisoquinoline] belongs 8.93; to `CCc1c2c(nn1C)CCN(c1ncnn3c(C)nc(C4CCOCC4)c13)C2` [Example 105, 4-(3-ethyl-2-methyl-2,4,6,7-tetrahydro-5H-pyrazolo[4,3-c]pyridin-5-yl)-7-methyl-5-(tetrahydro-2H-pyran-4-yl)imidazo[5,1-f][1,2,4]triazine], 8.73. To `Cc1nc(C2CC2)nc2c1CN(c1ncnn3c(C)nc([C@@H]4CCOC4)c13)CC2` [Example 41, 2-cyclopropyl-4-methyl-6-{7-methyl-5-[(3S)-tetrahydrofuran-3-yl]imidazo[5,1-f][1,2,4]triazin-4-yl}-5,6,7,8-tetrahydropyrido[4,3-d]pyrimidine] belongs over 9.76; to `CCOc1nc(C)nc2c1CN(c1ncnn3c(C)nc(-c4ccccc4F)c13)CC2` [Example 123, 4-ethoxy-6-[5-(2-fluorophenyl)-7-methylimidazo[5,1-f][1,2,4]triazin-4-yl]-2-methyl-5,6,7,8-tetrahydropyrido[4,3-d]pyrimidine], 8.84. As for `Cc1ccccc1-c1nc(C)n2ncnc(N3CCc4c(c(C(C)C)nn4C)C3)c12` [Example 10, 4-(3-Isopropyl-1-methyl-1,4,6,7-tetrahydro-5H-pyrazolo[4,3-c]pyridin-5-yl)-7-methyl-5-(2-methylphenyl)imidazo[5,1-f][1,2,4]triazine], the figure is 9.25. Compound `CCOc1nc(C2CC2)nc2c1CN(c1ncnn3c(C)nc(-c4ccccc4F)c13)CC2` [Example 147, 2-cyclopropyl-4-ethoxy-6-[5-(2-fluorophenyl)-7-methylimidazo[5,1-f][1,2,4]triazin-4-yl]-5,6,7,8-tetrahydropyrido[4,3-d]pyrimidine] had a pIC50 of 8.00.

Turning to `Cc1nc2c(s1)CN(c1ncnn3c(C)nc(-c4ccccc4F)c13)CC2` [Example 114, 5-(2-fluorophenyl)-7-methyl-4-(2-methyl-6,7-dihydro[1,3]thiazolo[5,4-c]pyridin-5(4H)-yl)imidazo[5,1-f][1,2,4]triazine], the pIC50 was 8.83. As for `COc1ccc2c(c1OC)CN(c1ncnn3c(C)nc([C@@H]4CCOC4)c13)CC2` [Example 17, 7,8-dimethoxy-2-{7-methyl-5-[(3S)-tetrahydrofuran-3-yl]imidazo[5,1-f][1,2,4]triazin-4-yl}-1,2,3,4-tetrahydroisoquinoline], the figure is over 9.62. With `COc1ccc2c(c1OC)CN(c1ncnn3c(C)nc(C4CCOCC4)c13)CC2` [Example 60, 7,8-dimethoxy-2-[7-methyl-5-(tetrahydro-2H-pyran-4-yl)imidazo[5,1-f][1,2,4]triazin-4-yl]-1,2,3,4-tetrahydroisoquinoline], the pIC50 is 8.87. As for `Cc1nn(C)c2c1CN(c1ncnn3c(C)nc(-c4ccccc4F)c13)CC2` [Example 115, 4-(1,3-dimethyl-1,4,6,7-tetrahydro-5H-pyrazolo[4,3-c]pyridin-5-yl)-5-(2-fluorophenyl)-7-methylimidazo[5,1-f][1,2,4]triazine], the figure is 9.08.

On to `Cc1cccc2c1CN(c1ncnn3c(C)nc([C@@H]4CCOC4)c13)CC2` [Example 155, 8-methyl-2-{7-methyl-5-[(3S)-tetrahydrofuran-3-yl]imidazo[5,1-f][1,2,4]triazin-4-yl}-1,2,3,4-tetrahydroisoquinoline], for which the pIC50 is 9.77. To `CCc1c2c(nn1C)CCN(c1ncnn3c(C)nc(-c4ccccc4F)c13)C2` [Example 112, 4(3-ethyl-2-methyl-2,4,6,7-tetrahydro-5H-pyrazolo[4,3-c]pyridin-5-yl)-5-(2-fluorophenyl)-7-methylimidazo[5,1-f][1,2,4]triazine] belongs 9.83; to `Cc1ccccc1-c1nc(C)n2ncnc(N3CCc4nc(C5CC5)ncc4C3)c12` [Example 24, 2-cyclopropyl-6-[7-methyl-5-(2-methylphenyl)imidazo[5,1-f][1,2,4]triazin-4-yl]-5,6,7,8-tetrahydropyrido[4,3-d]pyrimidine], over 8.48.

Consider `COc1cc2c(cc1OC)CN(c1ncnn3c(C)nc(-c4ccccc4F)c13)CC2` [Example 42, 2-[5-(2-fluorophenyl)-7-methylimidazo[5,1-f][1,2,4]triazin-4-yl]-6,7-dimethoxy-1,2,3,4-tetrahydroisoquinoline], for which the pIC50 was over 8.49. As for `Cc1nc(CC(C)C)c2c(N3CCc4ncccc4C3)ncnn12` [Example 97, 6-[7-methyl-5-(2-methylpropyl)imidazo[5,1-f][1,2,4]triazin-4-yl]-5,6,7,8-tetrahydro-1,6-naphthyridine], the figure is 8.04.

`Cc1onc2c1CN(c1ncnn3c(C)nc([C@@H]4CCOC4)c13)CC2` [Example 33, 7-methyl-4-(3-methyl-6,7-dihydro[1,2]oxazolo[4,3-c]pyridin-5(4H)-yl)-5-[(3S)-tetrahydrofuran-3-yl]imidazo[5,1-f][1,2,4]triazine]: the pIC50 is 7.63. On to `CCc1nn(C)c2c1CN(c1ncnn3c(C)nc(C4CCOCC4)c13)CC2` [Example 106, 4-(3-ethyl-1-methyl-1,4,6,7-tetrahydro-5H-pyrazolo[4,3-c]pyridin-5-yl)-7-methyl-5-(tetrahydro-2H-pyran-4-yl)imidazo[5,1-f][1,2,4]triazine], for which the pIC50 is 8.84. As for `CCc1onc2c1CN(c1ncnn3c(C)nc([C@@H]4CCOC4)c13)CC2` [Example 31], the figure is 8.43; as for `Cc1nc(-c2ccccc2F)c2c(N3CCc4cccnc4C3)ncnn12` [Example 65], 8.53. In turn, `Cc1nc(-c2ccc(F)cc2Cl)c2c(N3CCc4nc(C5CC5)ncc4C3)ncnn12` [Example 7, 6-[5-(2-Chloro-4-fluorophenyl)-7-methylimidazo[5,1-f][1,2,4]triazin-4-yl]-2-cyclopropyl-5,6,7,8-tetrahydropyrido[4,3-d]pyrimidine] gave a pIC50 of 8.07. To `COc1cc2c(cc1OC)CN(c1ncnn3c(C)nc(C4CCCO4)c13)CC2` (stereo not shown) [Example 77, 6,7-dimethoxy-2-[7-methyl-5-(tetrahydrofuran-2-yl)imidazo[5,1-f][1,2,4]triazin-4-yl]-1,2,3,4-tetrahydroisoquinoline] belongs 7.52.
